Where two headings read alike, the source gives them in different places. *1 amine or outer side, *2 acyl side, *3 side chain or, on linkers, in order; H or OH if unused. Where a SMILES comes first, the peptide text is derived from it. Bridges are numbered along the chain shown (N, C = ends). Roman numbers before positions name the chains, in order. [ ]: non-standard residue; d: D form. Actinocin(9to1) = Cc1c2oc3c(C)ccc(C(=O)[*:1])c3nc-2c(C(=O)[*:2])c(N)c1=O; NMeV = CN[C@H](C(=O)O)C(C)C; Sar = CNCC(=O)O
Experiments:
mammary MX-1 = test: Treatment of mammary MX-1 tumor; assay type: in vivo; details: at the doses tested
rat liver microsomes = test: Stimulation of adrenochrome formation (superoxide) by rat hepatic microsomal incubations; assay type: biochemical; details: for adrenochrome formation in presence of SOD: with SOD (superoxide dismutase) 5 ug/mL; for percentage stimulation of adrenochrome formation / adrenochrome formation: without SOD; for percentage stimulation of adrenochrome formation: (drug-stimulated rate - basal rate)/basal rate × 100; for adrenochrome formation: average ± standard error of triplicate
Description: It has been reported that the quinone imino chromophore of actinomycin can be subjected to enzyme-catalyzed single-electron reduction to give free-radical species that generate superoxides by reacting with molecular oxygen. The process needs a reductive cofactor NADPH, which is oxidized to NADP^+ during the process, giving a change in the absorbance at 340 nm that can be measured spectrophotometerically. Alternatively, the superoxides generated during the process may be allowed to react with epinephrine to produce adrenochrome, a chromophore with strong absorbance at 480 nm that can be measured spectrophotmetrically.
The superoxide formations were studied via NADPH oxidation catalyzed by AMD analogues in the presence of rat liver microsomes. […] The process of adrenochrome formation is inhibited by superoxide dismutase, confirming that superoxide is indeed generated in these systems.
^a The percentage stimulation = (drugstimulated rate basal rate)/basa
rate × 100 and is shown in parentheses. NADPH oxidation was measure
at 340 nm and adrenochrome formation was measured at 489 nm; the values
are average ± standard errors of triplicate analyses. ^b SOD,

[1] = tested on: supercoiled closed-circular pBR322 DNA; test: Cleavage of closed circular pBR322 DNA; assay type: biochemical; details: for Percentage of closed circular pBR322 DNA cleaved: 20° C., 1 h, Na2S2O4, FeCl2
Protocol: The cleavage of DNA was followed by monitoring of the conversion of supercoiled closed-circular pBR322 DNA to open-circular DNA (analyzed by agarose gel electrophoresis and quantitated by staining with 0.5 ug/mL of ethidium bromide for 30 min and densitometry; (Table II). SAD and RAD show strong DNA-cleaving ability in the presence of sodium hydrosulfite and ferrous chloride. Presumably, sodium hydrosulfite acts as a reducing agent and regenerates Fe(II) from Fe(III) to produce a continuous source of the active metal ion. When the DNA-cleaving reaction with the analogues was performed at 20° C., the ratio of cleaved DNA (open circular form DNA versus closed circular DNA) was almost maximum within 1 h. […] Cleavage of DNA by the analogues is aided by the actinomycin chromopeptide moiety, which acts as a site-specific binder to DNA, and is effected by the aminoquinone function which is chelated to the ferrous ion during the process, and this is the likely candidate which generates the radical species.
Plasmid DNA pBR322 (0.5 ug) was dissolved in /8 μL of a reaction buffer (5 mM […], 10 mM Tris-HCl). To this solution, 1 μL of the 10 mM aqueous solution of the agent containing 1 mM FeCl2 was added. The mixture was incubated for 0.5-2 h at 20° or 37° C. Then, the incubation mixture was mixed with 10 uL of sample loading buffer (50% glycerin in 2 X Boyer's buffer containing 0.01% bromophenol blue). Finally, 5 uL of the mixture was analyzed by 0.7% agarose gel electrophoresis (120 V, Boyer's buffer; the migration distance of bromophenol blue was 5.0 cm). The gel was stained with […] of ethidium bromide and then quantitated by densitometry.
^a Ten microliters of 200 u M pBR322 DNA nucelotides in UM 10 mM
TrisHCl (pH 7.8) and 50 mM NaCl, containing 4 mM Na2 --S2
O4 and 100 μM FeCl2, was incubated with drug concentration a
20° C. for 1 h; the reaction mixture was kept saturated with air
throughout the incubation period.
^b Percentage of DNA was calculated from the amounts of openand
closedcir- cular DNA in the incubation mixture.

[2] = Toxic deaths in nontumored mice treated in parallel (colon 38 experiment); assay type: in vivo
Description: × 100; in parenthesis, number of over 100 day survivors/number of
mice in a group of nontumored mice treated in parallel with the
tumorbearing mice and observed for 100 days.

P388 cells = test: Inhibition of nucleic acid synthesis in P388 cells in vitro; assay type: cell-based, murine
Description: In addition to the P388 cells, this inhibitory activity in human carcinoma HT-29 grown in tissue culture has been also examined. The values of the drug concentration producing 50% inhibition of the incorporation of [^3 H]-thymidine and [^14 C] uridine into nucleic acid macromolecules are presented in Table V. These values are taken as estimates of the inhibition of DNA and RNA synthesis. […] Furthermore, the inhibitory activities of these analogues are three-to fivefold higher than AMD; the order of potency of the analogues for their inhibition of DNA synthesis is:
DNA and RNA synthesis in P388 and HT-29 cells lines was monitored in the presence of drugs, and the rates of inhibition of their synthesis were estimated from the amounts of [2-^14 C]-uridine and [^3 H]-thymidine into RNA and DNA, respectively, according to the methods described previously.
^a Human colon carcinoma in culture, IC50, drug concentration
producing a 50% inhibition of incorporation of precursor [^3 H]
thymidine into DNA and [^14 C] uridine into RNA in the cell lines,
isolated as acid preciptable materials. Data are average of replicate

lung LX-1 = test: Treatment of lung LX-1 tumor; assay type: in vivo; details: at the doses tested
[3] = tested on: P388/ADR (adriamycin resistant) leukemia; test: Antitumor activity in vivo, P388/ADR leukemia; set-up: species or system mice; details: at optimal dose, ip days 1, 5, 9
Protocol: The analogues were also tested against P388/ADR murine leukemia following the standard protocol (Table VI).
ILS = percent increase in life span.

[4] = tested on: CX-1 human colon adenocarcinoma; test: Chemotherapy of human colon CX-1 tumor heterotransplanted in nude mice; assay type: in vivo, human tumor in athymic mice; details: for response of CX-1 tumor to treatment (in words): three iv treatments weekly from 15th day of transplant, at the doses tested; for % T/C, optimal: TST 15, observed day 22
Protocol: Tables XI and XII show the effectiveness of SAD (2) and RAD (3b and 3c) against CX-1 human colon adenocarcinoma heterotransplanted into athymic mice, with three iv treatments with drugs on a weekly schedule starting on the 15th day of tumor transplant. AMD and the analogues were tested at doses of 45 and 60 ug/kg.
^a -, % T/C high than 50%; ±, % T/C close to 50%; +, % T/C from 50
to 35%; ++, % T/C from 35% to 20%; +++, % T/C lower than 20%; ++++,
regression of the tumor to a volume lower than 10% of the volume at the
start of treatment. ^b Statistically significant as evaluated by the
^a Intravenous treatment, once a week for three weeks; eight mice per
group. ^b TST; number of days between tumor transplant and starting o
treatment. ^c Numbers in parentheses; day of observation after the […]

[5] = dose 0.30 mg/kg iv days 1, 5, 9
[6] = dose 0.60 mg/kg iv days 1, 5, 9
[7] = dose 1.20 mg/kg iv days 1, 5, 9
[8] = [3H]thymidine incorporation, read-out: IC50, DNA synth
[9] = [14C]uridine incorporation, read-out: IC50, RNA synth
[10] = dose 0.15 mg/kg iv days 1, 5, 9
[11] = dose 45 μg/kg iv once a week for three weeks
[12] = dose 60 μg/kg iv once a week for three weeks

Structure (SMILES)	response of mammary MX-1 to treatment (mammary MX-1)	adrenochrome formation in presence of SOD (rat liver microsomes)	percentage stimulation of adrenochrome formation (rat liver microsomes)	adrenochrome formation (rat liver microsomes)	Percentage of closed circular pBR322 DNA cleaved [1]	Percentage of closed circular pBR322 DNA cleaved ([1]; concn 25 M (so in the source))	Percentage of closed circular pBR322 DNA cleaved ([1]; concn 50 M (so in the source))	Percentage of closed circular pBR322 DNA cleaved ([1]; concn 100 M (so in the source))	toxic deaths [2, 5]	toxic deaths [2, 6]	toxic deaths [2, 7]	IC50 (P388 cells; [8])	IC50 (P388 cells; [9])	response of lung LX-1 to treatment (lung LX-1)	tumor free survivors/total on day 60 [3]	response of CX-1 tumor to treatment (in words) [4]	toxic deaths [2, 10]	% T/C, optimal [4, 11]	% T/C, optimal [4, 12]	further results
Cc1c2oc3c(C)c(O)c(N)c(C(=O)N[C@@H]4C(=O)N[C@H](C(C)C)C(=O)N5CCC[C@H]5C(=O)N(C)CC(=O)N(C)[C@@H](C(C)C)C(=O)O[C@@H]4C)c3nc-2c(C(=O)N[C@@H]2C(=O)N[C@H](C(C)C)C(=O)N3CCC[C@H]3C(=O)N(C)CC(=O)N(C)[C@@H](C(C)C)C(=O)O[C@@H]2C)c(N)c1=O [SAD (2)]	practically ineffective	inhibited	815%	19.3 ± 1.04 nmol/min per mg of protein	35%	50%	50%	65%	0/9	0/9	4/9	12 ± 4 nM	15 nM	practically ineffective	3/8	responded fairly well to SAD treatment but at 60 ug/kg only	–	–	–	–
Cc1c2oc3c(C)ccc(C(=O)N[C@@H]4C(=O)N[C@H](C(C)C)C(=O)N5CCC[C@H]5C(=O)N(C)CC(=O)N(C)[C@@H](C(C)C)C(=O)O[C@@H]4C)c3nc-2c(C(=O)N[C@@H]2C(=O)N[C@H](C(C)C)C(=O)N3CCC[C@H]3C(=O)N(C)CC(=O)N(C)[C@@H](C(C)C)C(=O)O[C@@H]2C)c(N)c1=O [AMD (1), Actinomycin D] (I: T[dV]P[Sar][NMeV] / II: T[dV]P[Sar][NMeV]; ester I:1-I:C, II:1-II:C; linker I:N-II:N via Actinocin(9to1))	practically ineffective	inhibited	8.5%	2.29 ± 0.33 nmol/min per mg of protein	10%	–	–	22%	0/9	4/9	–	1100 ± 90 nM	50 ± 5 nM	practically ineffective	–	ineffective	1/9	34%	36%	DNA cleaving efficiency relative to RAD III (3c) and SAD (2) [1]: about 30%; toxic deaths ([2]; dose 0.075 mg/kg iv days 1, 5, 9): 0/9; toxic deaths ([2]; dose 0.45 mg/kg iv days 1, 5, 9): 1/9
Cc1c2oc3c(C)c4oc(CC(=O)NCCCCN)nc4c(C(=O)N[C@@H]4C(=O)N[C@H](C(C)C)C(=O)N5CCC[C@H]5C(=O)N(C)CC(=O)N(C)[C@@H](C(C)C)C(=O)O[C@@H]4C)c3nc-2c(C(=O)N[C@@H]2C(=O)N[C@H](C(C)C)C(=O)N3CCC[C@H]3C(=O)N(C)CC(=O)N(C)[C@@H](C(C)C)C(=O)O[C@@H]2C)c(N)c1=O [RAD III (3c)]	practically ineffective	inhibited	870%	22.1 ± 2.2 nmol/min per mg of protein	40%	45%	50%	58%	0/9	4/9	2/9	430 ± 38 nM	55 ± 7 nM	practically ineffective	2/8	responded remarkably well to the treatment of RAD III at doses of 45 and 60 ug/kg	–	5%	3%	–
Cc1c2oc3c(C)c4oc(-c5ccccc5)nc4c(C(=O)N[C@@H]4C(=O)N[C@H](C(C)C)C(=O)N5CCC[C@H]5C(=O)N(C)CC(=O)N(C)[C@@H](C(C)C)C(=O)O[C@@H]4C)c3nc-2c(C(=O)N[C@@H]2C(=O)N[C@H](C(C)C)C(=O)N3CCC[C@H]3C(=O)N(C)CC(=O)N(C)[C@@H](C(C)C)C(=O)O[C@@H]2C)c(N)c1=O [RAD II (3b)]	–	inhibited	800%	18.8 ± 1.9 nmol/min per mg of protein	–	–	–	–	0/9	0/9	4/9	780 ± 66 nM	70 ± 5 nM	–	1/8	marginal but positive activity	1/9	48%	24%	–
